This is an account of results in publication PMC8868331, “Hydroxamic Acid as a Potent Metal-Binding Group for Inhibiting Tyrosinase” (Antioxidants, 2022).

Structures are written as SMILES. Like-named read-outs stand apart in the source and are kept apart here. A value given as a limit tells only on which side of the number the result lay.

Assay [1] has as its target tyrosinase (Agaricus bisporus, UniProt C7FF04). Put plainly: Enzyme-inhibitory kinetics (Michaelis-Menten fitting with inhibition models). Format: biochemical, mushroom. The settings on record: for Kinetics model (mode of inhibition): model chosen by F-test on reduced χ2. On the procedure:
Enzyme-inhibitory kinetics—Upon varying the substrate and inhibitor concentrations, the rates of product generation were measured. Simultaneous nonlinear fitting of all the profiles in an inhibitor was performed by minimizing the ꭓ^2-value, the sum of the squared differences in theoretical and experimental values, in the Michaelis–Menten equations assuming competitive, uncompetitive, noncompetitive, and mixed models. […] Reduced ꭓ^2-values, ꭓ^2-values divided by the difference in the numbers of input data and fitting parameters, were compared between the models based on the F-test to identify the most appropriate model.
The inhibitory kinetic experiments provide information for understanding the inhibition by small molecules. The rates of product generation were measured for a series of paired substrate and inhibitor concentrations. Subsequent nonlinear fitting using the Michaelis−Menten equations extended with inhibitory models and constants produced the inhibition mode and the binding constant.
Figure 4F lists the parameters for inhibition. […] However, one should be careful not to overinterpret the simulated modes and Ki values. The modes were chosen using the F-test, comparing reduced χ^2-values from each model.

The target in assay [2] is mushroom tyrosinase (Agaricus bisporus, UniProt C7FF04). The experiment in a line: Differential scanning fluorimetry (DSF) with SYPRO Orange. Conditions: 500 μM inhibitor; for Tm: mean ± SD of three experiments, DMSO control 49.16. Format: binding. As for the experimental part:
Differential scanning fluorimetry—Differential scanning fluorimetry (DSF) was used to characterize the direct binding of inhibitors to tyrosinase. In the absence and presence of 500 μM inhibitor, SYPRO® Orange was added to the enzyme solution. […] Time- and temperature-dependent signals were observed using the RT-PCR CFX96 system from BioRad (Hercules, CA, USA). The following equation was nonlinearly minimized to determine the mid-point melting temperature (Tm). I(T)=LL+UL−LL/[1+exp(Tm−T/a)] where UL and LL indicate the top and baseline of the curves, respectively, and a indicates the steepness of the slope.
We used differential scanning fluorimetry (DSF) to verify whether active small molecules identified by biochemical assays bound to tyrosinase directly. DSF was used to evaluate the fluorescence profiles of the dye SYPRO® Orange in a mixture with the protein upon elevating the temperature. The alteration in the unfolding process in the presence of a direct binder can shift the DSF pattern.
Background: In DSF a fluorescence change marks the thermal transition of the protein.

Assay [3] has as its target mushroom tyrosinase from Agaricus bisporus (Agaricus bisporus, UniProt C7FF04). The experiment in a line: Enzyme-activity assay with mushroom tyrosinase, L-DOPA substrate, dopachrome absorbance at 475 nm. It counts as biochemical.
Assay [4] has as its target tyrosinase. The settings on record: cited from earlier work; for IC50: ChEMBL-registered tyrosinase inhibitor.
The subject of assay [5] is indoleamine 2,3-dioxygenase. The arrangement: method as in PMID 26717206. Conditions: cited from earlier work.
Assay [6] deals with mandelate racemase. The arrangement: method as in PMID 17055725. The settings on record: cited from earlier work.
For assay [7], the system named is arachidonate 5-lipoxygenase. On the set-up: method as in PMID 3820229. The settings on record: cited from earlier work.
Assay [8] has as its target T1, mammalian tyrosinase in B16F10 cell lysates (Mus musculus, UniProt P11344).
T1 construct: The cell extracts having tyrosinase activity were prepared; host or cells: B16F10 murine melanoma cells, stimulated with 3-isobutyl-1-methylxanthine, lysate
T1 sequence (P11344 19-533): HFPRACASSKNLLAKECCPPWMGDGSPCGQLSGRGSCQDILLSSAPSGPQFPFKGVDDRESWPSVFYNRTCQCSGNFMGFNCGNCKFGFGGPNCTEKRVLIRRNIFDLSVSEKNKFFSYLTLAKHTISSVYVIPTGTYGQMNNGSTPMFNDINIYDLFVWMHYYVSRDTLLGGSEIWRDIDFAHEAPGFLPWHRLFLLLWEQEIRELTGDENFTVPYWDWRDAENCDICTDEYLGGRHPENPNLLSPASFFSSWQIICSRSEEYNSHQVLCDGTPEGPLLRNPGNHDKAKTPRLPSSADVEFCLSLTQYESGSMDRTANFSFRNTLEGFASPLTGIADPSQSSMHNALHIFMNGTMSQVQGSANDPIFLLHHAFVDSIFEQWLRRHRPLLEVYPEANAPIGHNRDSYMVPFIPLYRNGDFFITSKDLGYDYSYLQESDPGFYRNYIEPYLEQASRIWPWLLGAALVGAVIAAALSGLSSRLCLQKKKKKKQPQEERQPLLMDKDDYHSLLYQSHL
Put plainly: Cell-lysate-based tyrosinase activity assay. The settings on record: 50 μM, relative to untreated control. It counts as biochemical, murine. As for the experimental part:
Cell-lysate-based activity assays with inhibitors—Cell-lysate-based assays were performed using B16F10 murine melanoma cells obtained from the Korean Cell Line Bank (Seoul, Korea). The B16F10 cells were grown to a density of 1 × 10^5 cells in Dulbecco’s modified Eagle’s medium supplemented with 10% fetal bovine serum and 1% penicillin−streptomycin at 37 °C under 5% CO2. The cells were incubated for 48 h after the addition of 100 μM 3-isobutyl-1-methylxanthine. The cell extracts having tyrosinase activity were prepared.
The melanin quantification assay and the cell-lysate-based activity assay were used for confirming the inhibition of mammalian tyrosinases. Unfortunately, quantifying melanin content using hydroxamate-containing molecules is not feasible because anticancer agents affect cell viability. Therefore, we evaluated tyrosinase activities using B16F10 cell lysates in a small-molecule-concentration-dependent manner.

The test system of assay [9] is carbonic anhydrase. On the set-up: method as in PMID 22836518. Conditions: cited from earlier work.
Setting [10] is: shift toward lower temperature against DMSO.
[11] abbreviates: mushroom tyrosinase, concentration-dependent profile (Figure 2).

Sequence of mushroom tyrosinase (C7FF04 1-392 limits assumed): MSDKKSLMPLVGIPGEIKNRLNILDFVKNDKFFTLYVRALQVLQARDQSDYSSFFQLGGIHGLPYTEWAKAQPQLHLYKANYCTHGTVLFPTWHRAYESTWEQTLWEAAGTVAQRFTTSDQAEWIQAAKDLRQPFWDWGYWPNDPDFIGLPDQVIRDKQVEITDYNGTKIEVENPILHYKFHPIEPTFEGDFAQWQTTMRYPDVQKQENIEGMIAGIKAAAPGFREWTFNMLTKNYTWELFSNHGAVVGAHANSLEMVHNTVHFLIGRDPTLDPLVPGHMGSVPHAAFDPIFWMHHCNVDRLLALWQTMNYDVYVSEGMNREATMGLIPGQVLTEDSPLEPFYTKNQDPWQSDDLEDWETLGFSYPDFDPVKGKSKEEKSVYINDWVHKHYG
Sequence of mushroom tyrosinase from Agaricus bisporus (C7FF04 1-392): as the sequence (C7FF04 1-392 limits assumed) above
Sequence of tyrosinase (Agaricus bisporus, UniProt C7FF04) (C7FF04 1-392): as the sequence (C7FF04 1-392 limits assumed) above

As for `Cc1[nH]c2ccccc2c1CCNCc1ccc(/C=C/C(=O)NO)cc1` [Panobinostat], the “Kinetics model (mode of inhibition)” value in assay [1] is “competitive”. Besides, the inhibition constant Ki in assay [1] (simultaneous nonlinear fit, read-out: Ki (simulated inhibitory constant from kinetics fit)) was 0.29 µM; in [3] (read-out: Ki) it was 0.04 ± 0.005 µM. The Tm in assay [2] came out at 46.72 ± 0.06 °C. Moreover, the ΔTm in [2] (shift toward lower temperature) stood at 2.44 degrees; in assay [2] (setting [10]) it was 2.44 °. Moreover, the “Ki values as worded in the text (words or range with mixed units)” value in assay [3] (mushroom tyrosinase) was “submicromolar range”.

Consider `CCN(CC)C(=O)/C=C/c1ccc(O)cc1O` [CHEMBL4463984], for which, in assay [4] (ref 62 (supplement ref 8)), the IC50 was 0.011 µM.

In the case of `C/C=C1\NC(=O)[C@H]2CSSCC/C=C/[C@H](CC(=O)N[C@H](C(C)C)C(=O)N2)OC(=O)[C@H](C(C)C)NC1=O` [Romidepsin], in assay [3], the “Inhibition of tyrosinase (in words)” value is listed as “inhibited very weakly” and the Ki is greater than 500 µM.

For the compound `O=c1cccccc1O` [Tropolone], the Ki in assay [3] (read-out: Ki) came out at 0.043 ± 0.003 µM.

`CCCC(CCC)C(=O)O` [Valproic acid]: the “Inhibition of tyrosinase (in words)” value in assay [3] (setting [11]) was “inhibited very weakly”. Besides, the Ki in assay [3] (read-out: Ki) is greater than 500 µM.

In the case of `Oc1ccc(-c2nc3ccccc3s2)c(O)c1` [CHEMBL1408767], in assay [4] (ref 61 (supplement ref 7)), the IC50 is 0.01 µM.

On to `O=C(NO)c1ccccc1` [Benzohydroxamic acid], for which the “Inhibition of indoleamine 2,3-dioxygenase (in words)” value in [5] is “μM range”. For the same compound, the “Inhibition of mandelate racemase (in words)” value in [6] is listed as “μM range”. In assay [7], the “Inhibition of arachidonate 5-lipoxygenase (in words)” value is reported as “μM range”. The “Decrease of tyrosinase activity” value in assay [8] was “approximately 97%”. The inhibition constant Ki in assay [1] was determined as 0.128 µM; in assay [3] it was 0.007 ± 0.001 µM. The “Kinetics model (mode of inhibition)” value in assay [1] was “noncompetitive”. Besides, in assay [2], the Tm is 47.15 ± 0.07 °C. The ΔTm in assay [2] (shift toward lower temperature) worked out at 2.01 degrees; in assay [2] (setting [10]), 2.01 °. Also, the “Inhibition of carbonic anhydrase (in words)” value in [9] is reported as “μM range”.

As for `CCCC(=O)NO` [Butyrylhydroxamic acid], the Ki in assay [3] (read-out: Ki) came to 32 ± 5 µM.

Turning to `CC(=O)NO` [Acetohydroxamic acid], the “Kinetics model (mode of inhibition)” value in [1] is on record as “noncompetitive”. For the same compound, in [3] (inhibitory constant converted from IC50 (Cheng-Prusoff), 5 nM enzyme, 500 μM L-DOPA, ± is SD from Monte-Carlo simulation, read-out: Ki), the Ki was 38 ± 8 µM.

`CC(/C=C/C(=O)NO)=C\[C@@H](C)C(=O)c1ccc(N(C)C)cc1` [Trichostatin A]: the inhibitory constant (Ki) turned out to be 4.5 µM in [1] (Ki for apo state (mixed model), first value, apo state); 37 µM in assay [1] (Ki for holo state (mixed model), second value, holo state); 1 ± 0.1 µM in assay [3]. In addition, in assay [1], the “Kinetics model (mode of inhibition)” value is listed as “mixed”. Also, in assay [2], the Tm is 46.55 ± 0.07 °C.

Turning to `CC(=O)NO` [N-Hydroxyacetamide], the inhibition constant (Ki) in [3] (inhibitory constant converted from IC50 (Cheng-Prusoff), 5 nM enzyme, 500 μM L-DOPA, read-out: Ki) was greater than 1000 µM. In assay [3] (setting [11]), the “Inhibition of tyrosinase (in words)” value is on record as “scarcely inhibited”.

On to `O=C(CCCCCN1C(=O)c2cccc3cccc(c23)C1=O)NO` [Scriptaid], for which, in [1], the “Kinetics model (mode of inhibition)” value is recorded as “competitive”. Besides, the Tm in assay [2] turned out to be 47.31 ± 0.07 °C. Further, the ΔTm is recorded as 1.85 degrees in assay [2] (shift toward lower temperature) and 1.85 ° in [2] (setting [10]). Also, in assay [3], the Ki turned out to be 0.18 ± 0.021 µM.

`NCC(=O)NO` [Glycine hydroxamate]: the “Inhibition of tyrosinase (in words)” value in assay [4] is “comparable inhibitory activity to arbutin”.

As for `O=C(CCCCCCC(=O)NO)NO` [Suberohydroxamic acid], the inhibition constant (Ki) in assay [3] (read-out: Ki) came out at 1 ± 0.2 µM.

The term Ki denotes a dissociation constant, usually derived from enzyme kinetics or from competition with a known ligand. As usually defined, the Tm is the temperature at which the thermal transition is half complete. One may read the IC50 as the midpoint of a concentration-inhibition curve.
